Test results taken from ChEMBL document CHEMBL1128895, “Synthesis and pharmacological characterization of A-80426: A putative novel antidepressant combining -2 antagonism with 5-HT uptake inhibition” (Bioorg Med Chem Lett, 1995).

Experiments:
Rattus norvegicus [1] = species on record: Rattus norvegicus; test: Evaluated for inhibition of norepinephrine, biogenic amine reuptake in synaptosomal rat brain preparations; format: functional
Rattus norvegicus [2] = species on record: Rattus norvegicus; test: Evaluated for inhibition of dopamine, biogenic amine reuptake in synaptosomal rat brain preparations; format: functional
[3] = target: T1, Adrenergic receptor alpha-1 (Rattus norvegicus, UniProt P15823+P23944+P43140); test: Evaluated for affinity at Alpha-1 adrenergic receptor of rat brain using [3H]prazosin as radioligand in radioligand binding assay
T1 sequence (P15823 whole entry): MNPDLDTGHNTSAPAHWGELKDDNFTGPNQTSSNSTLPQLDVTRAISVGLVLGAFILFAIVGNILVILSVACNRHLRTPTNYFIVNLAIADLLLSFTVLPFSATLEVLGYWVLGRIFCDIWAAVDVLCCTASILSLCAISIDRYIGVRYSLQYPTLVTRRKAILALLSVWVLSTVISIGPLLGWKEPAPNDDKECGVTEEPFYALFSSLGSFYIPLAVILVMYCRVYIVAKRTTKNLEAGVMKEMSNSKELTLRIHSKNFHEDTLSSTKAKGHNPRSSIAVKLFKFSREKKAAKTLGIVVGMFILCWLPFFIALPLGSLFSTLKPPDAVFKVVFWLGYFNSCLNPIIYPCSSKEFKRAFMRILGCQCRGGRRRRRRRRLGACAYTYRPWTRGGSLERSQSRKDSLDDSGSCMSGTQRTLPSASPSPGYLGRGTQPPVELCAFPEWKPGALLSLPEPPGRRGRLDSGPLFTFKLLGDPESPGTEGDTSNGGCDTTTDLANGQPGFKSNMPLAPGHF
T1 sequence (P23944 whole entry): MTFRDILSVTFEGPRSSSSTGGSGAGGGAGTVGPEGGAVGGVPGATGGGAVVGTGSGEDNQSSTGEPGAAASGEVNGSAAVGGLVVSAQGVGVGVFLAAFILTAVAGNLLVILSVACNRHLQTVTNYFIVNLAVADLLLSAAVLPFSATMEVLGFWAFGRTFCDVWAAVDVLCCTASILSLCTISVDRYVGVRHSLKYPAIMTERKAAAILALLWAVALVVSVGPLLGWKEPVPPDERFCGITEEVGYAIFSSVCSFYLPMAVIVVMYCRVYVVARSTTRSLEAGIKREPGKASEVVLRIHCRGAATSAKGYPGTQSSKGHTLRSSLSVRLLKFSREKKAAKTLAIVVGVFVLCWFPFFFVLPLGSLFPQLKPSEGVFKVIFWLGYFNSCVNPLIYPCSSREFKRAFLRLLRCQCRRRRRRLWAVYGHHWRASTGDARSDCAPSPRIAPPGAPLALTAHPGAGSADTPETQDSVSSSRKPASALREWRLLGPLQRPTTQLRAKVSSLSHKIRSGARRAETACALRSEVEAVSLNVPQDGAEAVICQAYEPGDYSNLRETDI
T1 sequence (P43140 whole entry): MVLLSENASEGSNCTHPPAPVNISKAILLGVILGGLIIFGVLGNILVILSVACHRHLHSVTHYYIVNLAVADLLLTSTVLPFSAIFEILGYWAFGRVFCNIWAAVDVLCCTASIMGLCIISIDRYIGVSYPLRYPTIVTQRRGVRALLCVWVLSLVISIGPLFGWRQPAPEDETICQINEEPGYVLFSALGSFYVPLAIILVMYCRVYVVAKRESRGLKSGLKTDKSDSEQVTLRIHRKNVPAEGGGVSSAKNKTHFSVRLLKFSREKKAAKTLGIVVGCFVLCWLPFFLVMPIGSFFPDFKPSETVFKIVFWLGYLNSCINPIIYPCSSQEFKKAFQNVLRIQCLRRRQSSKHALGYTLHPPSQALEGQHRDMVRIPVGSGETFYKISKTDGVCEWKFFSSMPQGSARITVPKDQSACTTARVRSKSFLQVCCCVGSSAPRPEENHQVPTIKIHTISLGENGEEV

[4] = target: T2, Adrenergic receptor alpha-2 (Rattus norvegicus, UniProt P22086+P19328+P22909); test: Evaluated for affinity at Alpha-2 adrenergic receptor of rat brain using [3H]rauwolscine as radioligand in radioligand binding assay
T2 sequence (P22086 whole entry): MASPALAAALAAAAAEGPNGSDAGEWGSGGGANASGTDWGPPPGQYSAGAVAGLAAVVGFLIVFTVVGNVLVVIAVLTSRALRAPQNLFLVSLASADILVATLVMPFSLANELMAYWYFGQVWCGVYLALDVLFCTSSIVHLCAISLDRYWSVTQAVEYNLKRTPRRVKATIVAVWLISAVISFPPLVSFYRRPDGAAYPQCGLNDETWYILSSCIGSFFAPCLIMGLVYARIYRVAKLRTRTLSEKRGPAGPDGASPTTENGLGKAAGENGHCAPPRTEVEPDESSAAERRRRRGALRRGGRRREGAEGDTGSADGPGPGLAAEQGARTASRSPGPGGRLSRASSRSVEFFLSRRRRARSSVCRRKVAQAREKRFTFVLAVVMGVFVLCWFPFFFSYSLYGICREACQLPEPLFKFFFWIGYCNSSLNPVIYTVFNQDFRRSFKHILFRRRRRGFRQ
T2 sequence (P19328 whole entry): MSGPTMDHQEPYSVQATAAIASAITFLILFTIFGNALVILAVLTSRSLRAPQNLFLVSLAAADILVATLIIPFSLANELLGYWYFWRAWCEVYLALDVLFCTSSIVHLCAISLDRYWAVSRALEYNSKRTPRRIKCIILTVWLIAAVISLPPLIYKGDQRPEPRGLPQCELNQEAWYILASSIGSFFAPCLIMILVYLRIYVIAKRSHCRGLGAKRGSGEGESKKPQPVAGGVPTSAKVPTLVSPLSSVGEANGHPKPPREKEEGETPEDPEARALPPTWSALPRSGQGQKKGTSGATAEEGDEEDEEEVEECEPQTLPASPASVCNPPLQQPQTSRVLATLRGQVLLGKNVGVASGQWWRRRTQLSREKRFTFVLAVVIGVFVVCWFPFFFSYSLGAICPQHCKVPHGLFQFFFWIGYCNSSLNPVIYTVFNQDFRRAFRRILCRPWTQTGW
T2 sequence (P22909 whole entry): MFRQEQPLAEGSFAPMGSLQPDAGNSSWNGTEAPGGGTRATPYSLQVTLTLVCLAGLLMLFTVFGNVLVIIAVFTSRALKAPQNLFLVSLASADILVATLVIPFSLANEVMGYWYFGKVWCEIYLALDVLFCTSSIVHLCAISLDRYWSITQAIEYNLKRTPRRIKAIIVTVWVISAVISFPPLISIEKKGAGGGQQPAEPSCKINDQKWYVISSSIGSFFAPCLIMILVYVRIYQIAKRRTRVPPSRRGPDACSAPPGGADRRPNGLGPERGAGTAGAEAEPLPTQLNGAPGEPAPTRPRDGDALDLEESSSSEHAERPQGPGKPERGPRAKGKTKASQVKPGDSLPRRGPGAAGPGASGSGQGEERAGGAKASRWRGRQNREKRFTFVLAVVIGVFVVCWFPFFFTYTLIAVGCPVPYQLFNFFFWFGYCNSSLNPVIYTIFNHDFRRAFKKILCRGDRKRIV

Rattus norvegicus [5] = species on record: Rattus norvegicus; test: Evaluated for inhibition of 5-Hydroxytryptamine, biogenic amine reuptake in synaptosomal rat brain preparations; format: functional
Rattus norvegicus [6] = species on record: Rattus norvegicus; test: […] reversal of passive avoidance deficit in olfactory bulbectomized rats; format: functional
Rattus norvegicus [7] = species on record: Rattus norvegicus; test: […] p-chloroamphetamine (PCA) induced hyperactivity in rats; format: functional
[8] = target: T2, Adrenergic receptor alpha-2; test: Evaluated for affinity at Alpha-2 adrenergic receptor of rat cortex using [3H]rauwolscine as radioligand in radioligand binding assay
[9] = target: Beta-1 adrenergic receptor (Rattus norvegicus, UniProt P18090); test: Compound was evaluated for its binding affinity to beta-1 receptor in rat brain using [3H]- DHA radioligand assay; format: tissue-based
Sequence of Beta-1 adrenergic receptor (P18090 whole entry): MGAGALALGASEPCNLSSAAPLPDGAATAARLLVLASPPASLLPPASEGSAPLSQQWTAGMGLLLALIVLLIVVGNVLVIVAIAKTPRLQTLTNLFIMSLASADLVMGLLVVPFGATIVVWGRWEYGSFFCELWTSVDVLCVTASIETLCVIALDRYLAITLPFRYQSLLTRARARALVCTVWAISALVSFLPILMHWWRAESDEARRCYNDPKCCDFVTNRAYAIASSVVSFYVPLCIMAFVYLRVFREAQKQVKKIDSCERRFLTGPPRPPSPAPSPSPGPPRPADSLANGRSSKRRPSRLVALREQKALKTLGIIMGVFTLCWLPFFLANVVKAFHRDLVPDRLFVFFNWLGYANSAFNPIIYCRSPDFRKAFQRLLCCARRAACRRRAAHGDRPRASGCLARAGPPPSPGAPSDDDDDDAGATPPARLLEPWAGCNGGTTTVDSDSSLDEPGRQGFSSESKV

D(1A) dopamine receptor = D(1A) dopamine receptor (Rattus norvegicus, UniProt P18901); test: Compound was evaluated for its binding affinity to Dopamine receptor D1 in rat striatum using [3H]- SCH-23390 radioligand assay; format: tissue-based
Sequence of D(1A) dopamine receptor (P18901 whole entry): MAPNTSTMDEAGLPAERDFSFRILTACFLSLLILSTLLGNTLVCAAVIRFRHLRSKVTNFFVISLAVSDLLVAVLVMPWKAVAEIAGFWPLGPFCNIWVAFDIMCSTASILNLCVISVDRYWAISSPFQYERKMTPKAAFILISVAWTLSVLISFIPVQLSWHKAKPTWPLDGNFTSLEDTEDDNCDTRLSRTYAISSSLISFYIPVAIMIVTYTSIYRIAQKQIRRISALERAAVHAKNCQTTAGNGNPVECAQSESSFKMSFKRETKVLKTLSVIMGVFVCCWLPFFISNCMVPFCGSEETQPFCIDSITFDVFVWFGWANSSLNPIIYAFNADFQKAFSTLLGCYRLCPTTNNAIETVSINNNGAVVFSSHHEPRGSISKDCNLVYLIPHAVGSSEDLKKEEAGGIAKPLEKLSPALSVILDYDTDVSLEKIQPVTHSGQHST

D(2) dopamine receptor = D(2) dopamine receptor (Rattus norvegicus, UniProt P61169); test: Compound was evaluated for its binding affinity to Dopamine receptor D2 in rat brain using [3H]- spiroperidol radioligand assay; format: tissue-based
Sequence of D(2) dopamine receptor (P61169 whole entry): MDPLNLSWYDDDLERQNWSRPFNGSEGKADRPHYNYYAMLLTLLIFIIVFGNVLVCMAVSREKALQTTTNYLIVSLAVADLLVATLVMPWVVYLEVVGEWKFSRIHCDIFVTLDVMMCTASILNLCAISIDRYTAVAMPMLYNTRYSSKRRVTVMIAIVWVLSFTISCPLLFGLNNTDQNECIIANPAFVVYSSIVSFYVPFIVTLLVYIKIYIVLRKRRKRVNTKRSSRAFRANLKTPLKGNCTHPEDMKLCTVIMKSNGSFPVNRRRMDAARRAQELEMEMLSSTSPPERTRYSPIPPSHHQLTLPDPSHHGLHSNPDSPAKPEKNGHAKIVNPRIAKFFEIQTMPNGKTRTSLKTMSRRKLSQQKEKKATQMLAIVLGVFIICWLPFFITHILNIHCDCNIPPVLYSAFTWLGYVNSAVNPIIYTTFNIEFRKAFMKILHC

[10] = target: Serotonin 2 (5-HT2) receptor (Rattus norvegicus, UniProt P30994+P08909+P14842); test: Compound was evaluated for its binding affinity to 5-hydroxytryptamine 2 receptor in rat cortex using [3H]ketanserin radioligand assay
[11] = target: Serotonin 1 (5-HT1) receptor (Rattus norvegicus, UniProt P28564+P30940+P19327+P28565); test: Compound was evaluated for its binding affinity to 5-hydroxytryptamine 1 receptor in rat brain using [3H]HT radioligand assay; format: tissue-based

| Compound | IC50 (Rattus norvegicus [1]) [nM] | IC50 (Rattus norvegicus [2]) [µM] | Ki [3] [nM] | Ki [4] [µM] | IC50 (Rattus norvegicus [5]) [nM] | ED50 (Rattus norvegicus [6]) [mg/kg] | ED50 (Rattus norvegicus [7]) [mg/kg] | Ki [8] [nM] | Ki [9] [nM] | Ki (D(1A) dopamine receptor) [nM] | Ki (D(2) dopamine receptor) [nM] | Ki [10] [nM] | Ki [11] [nM] |
| --- | --- | --- | --- | --- | --- | --- | --- | --- | --- | --- | --- | --- | --- |
| Fc1ccc([C@@H]2CCNC[C@H]2COc2ccc3c(c2)OCO3)cc1 [PAROXETINE] | 160 | 7.62 | 5320 | 6.31 | – | – | – | – | – | – | – | – | – |
| COC(=O)[C@H]1[C@H]2C[C@H]3c4[nH]c5ccccc5c4CCN3C[C@H]2CC[C@@H]1O [RAUWOLSCINE] | > 10000 | > 10 | – | – | – | – | – | – | – | – | – | – | – |
| CNCCC(Oc1ccc(C(F)(F)F)cc1)c1ccccc1 (stereo unspecified) [FLUOXETINE] | 3280 | 16.2 | – | – | 308 | 12.1 | 11.7 | – | – | – | – | – | – |
| COc1cccc2c1CCC[C@H]2CN(C)CCc1ccc2ccoc2c1 | 865 | 2.94 | 110 | – | – | 7.1 | 13.3 | 2.01 | 836 | 744 | 52 | 144 | 2970 |
| COc1cccc2c1CCC[C@@H]2CN(C)CCc1ccc2ccoc2c1 | 476 | 4.75 | 241 | 0.11 | – | – | – | – | – | – | – | – | – |
